# Measured values as given in article PMC10819888, “Benzimidazole-Based Derivatives as Apoptotic Antiproliferative Agents: Design, Synthesis, Docking, and Mechanistic Studies” (Molecules, 2024).
# Where two headings read alike, the source gives them in different places.
# Key:
# [1] = tested on: SK-OV-3; experiment: NCI-60 five-dose assay; format: cell-based, human; conditions: SK-OV-3 (Ovarian Cancer), 48 h; for GI50 / CC50: Homo sapiens; for GI50: read-out: GI50 Conc. per Cell Line; for CC50: read-out: LC50 (the source's name)
# [2] = tested on: M14; experiment: NCI-60 five-dose assay; format: cell-based, human; conditions: M14 (Melanoma), 48 h; for GI50 / CC50: Homo sapiens; for GI50: read-out: GI50 Conc. per Cell Line; for CC50: read-out: LC50 (the source's name)
# [3] = tested on: SW-620; experiment: NCI-60 five-dose assay; format: cell-based, human; conditions: SW-620 (Colon Cancer), 48 h; for GI50: read-out: GI50 Conc. per Cell Line
# [4] = tested on: SK-MEL-28; experiment: NCI-60 five-dose assay; format: cell-based, human; conditions: SK-MEL-28 (Melanoma), 48 h; for GI50 / CC50: Homo sapiens; for GI50: read-out: GI50 Conc. per Cell Line; for CC50: read-out: LC50 (the source's name)
# [5] = tested on: NCI-H322M; experiment: NCI-60 five-dose assay; format: cell-based, human; conditions: NCI-H322M (Non-Small Cell Lung Cancer), 48 h; for GI50 / CC50: Homo sapiens; for GI50: read-out: GI50 Conc. per Cell Line; for CC50: read-out: LC50 (the source's name)
# [6] = tested on: Breast Cancer subpanel; experiment: NCI-60 five-dose assay, subpanel; format: cell-based, human; conditions: for GI50 Selectivity Ratio (MID a/MID b): Breast Cancer subpanel; for GI50: Homo sapiens, Breast Cancer, average sensitivity of all subpanel cell lines, read-out: GI50 Subpanel MID b
# [7] = tested on: COLO 205; experiment: NCI-60 five-dose assay; format: cell-based, human; conditions: COLO 205 (Colon Cancer), 48 h; for GI50: read-out: GI50 Conc. per Cell Line
# [8] = tested on: Melanoma subpanel; experiment: NCI-60 five-dose assay, subpanel; format: cell-based, human; conditions: for GI50: Homo sapiens, Melanoma, average sensitivity of all subpanel cell lines, read-out: GI50 Subpanel MID b; for GI50 Selectivity Ratio (MID a/MID b): Melanoma subpanel
# [9] = tested on: OVCAR-3; experiment: NCI-60 five-dose assay; format: cell-based, human; conditions: OVCAR-3 (Ovarian Cancer), 48 h; for GI50 / CC50: Homo sapiens; for GI50: read-out: GI50 Conc. per Cell Line; for CC50: read-out: LC50 (the source's name)
# [10] = tested on: Ovarian Cancer subpanel; experiment: NCI-60 five-dose assay, subpanel; format: cell-based, human; conditions: for GI50: Homo sapiens, Ovarian Cancer, average sensitivity of all subpanel cell lines, read-out: GI50 Subpanel MID b; for GI50 Selectivity Ratio (MID a/MID b): Ovarian Cancer subpanel
# [11] = tested on: MDA-MB-231; experiment: NCI-60 five-dose assay; format: cell-based, human; conditions: MDA-MB-231 (Breast Cancer), 48 h; for GI50 / CC50: Homo sapiens; for GI50: read-out: GI50 Conc. per Cell Line; for CC50: read-out: LC50 (the source's name)
# [12] = biological target: EGFR (Homo sapiens, UniProt P00533); experiment: EGFR inhibitory assay
# [13] = tested on: NCI-H226; experiment: NCI-60 five-dose assay; format: cell-based, human; conditions: NCI-H226 (Non-Small Cell Lung Cancer), 48 h; for GI50 / CC50: Homo sapiens; for GI50: read-out: GI50 Conc. per Cell Line; for CC50: read-out: LC50 (the source's name)
# [14] = tested on: U251; experiment: NCI-60 five-dose assay; format: cell-based, human; conditions: U251 (CNS Cancer), 48 h; for GI50 / CC50: Homo sapiens, U-251; for GI50: read-out: GI50 Conc. per Cell Line; for CC50: read-out: LC50 (the source's name)
# [15] = tested on: 786-0; experiment: NCI-60 five-dose assay; format: cell-based, human; conditions: 786-0 (Renal Cancer), 48 h; for GI50 / CC50: Homo sapiens; for GI50: read-out: GI50 Conc. per Cell Line; for CC50: read-out: LC50 (the source's name)
# [16] = tested on: A498; experiment: NCI-60 five-dose assay; format: cell-based, human; conditions: A498 (Renal Cancer), 48 h; for GI50 / CC50: Homo sapiens; for GI50: read-out: GI50 Conc. per Cell Line; for CC50: read-out: LC50 (the source's name)
# [17] = tested on: full panel of 60 human tumor cell lines; experiment: NCI-60 five-dose assay, full panel; format: cell-based
# [18] = tested on: MCF7; experiment: NCI-60 five-dose assay; format: cell-based, human; conditions: MCF7 (Breast Cancer), 48 h; for GI50 / CC50: Homo sapiens; for GI50: read-out: GI50 Conc. per Cell Line; for CC50: read-out: LC50 (the source's name)
# [19] = tested on: MALME-3M; experiment: NCI-60 five-dose assay; format: cell-based, human; conditions: MALME-3M (Melanoma), 48 h; for GI50: read-out: GI50 Conc. per Cell Line
# [20] = tested on: OVCAR-5; experiment: NCI-60 five-dose assay; format: cell-based, human; conditions: OVCAR-5 (Ovarian Cancer), 48 h; for GI50 / CC50: Homo sapiens; for GI50: read-out: GI50 Conc. per Cell Line; for CC50: read-out: LC50 (the source's name)
# [21] = tested on: ACHN; experiment: NCI-60 five-dose assay; format: cell-based, human; conditions: ACHN (Renal Cancer), 48 h; for GI50 / CC50: Homo sapiens; for GI50: read-out: GI50 Conc. per Cell Line; for CC50: read-out: LC50 (the source's name)
# [22] = tested on: HCT-15; experiment: NCI-60 five-dose assay; format: cell-based, human; conditions: HCT-15 (Colon Cancer), 48 h; for GI50 / CC50: Homo sapiens; for GI50: read-out: GI50 Conc. per Cell Line; for CC50: read-out: LC50 (the source's name)
# [23] = tested on: UACC-62; experiment: NCI-60 five-dose assay; format: cell-based, human; conditions: UACC-62 (Melanoma), 48 h; for GI50 / CC50: Homo sapiens; for GI50: read-out: GI50 Conc. per Cell Line; for CC50: read-out: LC50 (the source's name)
# [24] = tested on: BT-549; experiment: NCI-60 five-dose assay; format: cell-based, human; conditions: BT-549 (Breast Cancer), 48 h; for GI50 / CC50: Homo sapiens; for GI50: read-out: GI50 Conc. per Cell Line; for CC50: read-out: LC50 (the source's name)
# [25] = tested on: NCI/ADR-RES; experiment: NCI-60 five-dose assay; format: cell-based, human; conditions: NCI/ADR-RES (Ovarian Cancer), 48 h; for GI50 / CC50: Homo sapiens; for GI50: read-out: GI50 Conc. per Cell Line; for CC50: read-out: LC50 (the source's name)
# [26] = tested on: Renal Cancer subpanel; experiment: NCI-60 five-dose assay, subpanel; format: cell-based, human; conditions: for GI50: Homo sapiens, Renal Cancer, average sensitivity of all subpanel cell lines, read-out: GI50 Subpanel MID b; for GI50 Selectivity Ratio (MID a/MID b): Renal Cancer subpanel
# [27] = average sensitivity of all cell lines, read-out: MID a (GI50)
# [28] = five-dose assay, range over cell lines, read-out: GI50 range over the examined cell lines
# EGFR, sequence (P00533 669-1210): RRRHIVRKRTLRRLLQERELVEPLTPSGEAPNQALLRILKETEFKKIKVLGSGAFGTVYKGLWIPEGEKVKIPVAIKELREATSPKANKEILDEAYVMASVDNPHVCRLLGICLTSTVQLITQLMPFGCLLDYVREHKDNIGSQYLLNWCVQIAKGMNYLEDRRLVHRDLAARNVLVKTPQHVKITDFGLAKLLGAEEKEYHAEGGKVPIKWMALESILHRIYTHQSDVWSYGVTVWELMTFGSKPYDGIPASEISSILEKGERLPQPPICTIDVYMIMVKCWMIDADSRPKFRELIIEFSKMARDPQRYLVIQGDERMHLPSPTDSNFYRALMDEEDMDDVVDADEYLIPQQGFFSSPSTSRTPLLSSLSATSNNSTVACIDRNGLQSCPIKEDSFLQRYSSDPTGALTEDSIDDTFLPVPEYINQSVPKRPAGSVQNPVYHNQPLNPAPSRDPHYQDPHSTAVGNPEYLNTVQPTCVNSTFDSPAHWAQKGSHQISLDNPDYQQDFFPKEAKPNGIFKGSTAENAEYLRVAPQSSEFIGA
structure (smiles),measurement,setting,value
"O=C(NN=Cc1ccc([N+](=O)[O-])cc1)c1ccc2[nH]c(-c3ccc(Cl)cc3)nc2c1 [Compound 4c, N′-(4-Nitrobenzylidene)-2-(4-chlorophenyl)-1H-benzimidazole-5-carbohydrazide]",GI50,[1],11.4 µM
same,CC50,[1],> 100 µM
same,TGI,[1],39.60 µM
same,GI50,[2],2.73 µM
same,CC50,[2],67.1 µM
same,TGI,[2],9.13 µM
same,GI50,[3]; Homo sapiens,3.44 µM
same,TGI,[3],10.80 µM
same,GI50,[4],2.6 µM
same,CC50,[4],39 µM
same,TGI,[4],10.30 µM
same,GI50,[5],5.04 µM
same,CC50,[5],> 100 µM
same,TGI,[5],26.40 µM
same,GI50 Selectivity Ratio (MID a/MID b),[6],1.31
same,GI50,[6],2.5 µM
same,TGI,[7],3.76 µM
same,GI50,[7]; Homo sapiens,1.46 µM
same,GI50,[8],2.87 µM
same,GI50 Selectivity Ratio (MID a/MID b),[8],1.14
same,GI50,[9],3.25 µM
same,CC50,[9],40.9 µM
same,TGI,[9],8.23 µM
same,GI50,[10],5.77 µM
same,GI50 Selectivity Ratio (MID a/MID b),[10],0.57
same,GI50,[11],3.75 µM
same,CC50,[11],69.1 µM
same,TGI,[11],13.90 µM
same,IC50,[12],0.11 ± 0.01 µM
same,GI50,[13],5.03 µM
same,CC50,[13],> 100 µM
same,TGI,[13],31.20 µM
same,GI50,[14],2.92 µM
same,CC50,[14],48 µM
same,TGI,[14],10.80 µM
same,TGI,[15],15.70 µM
same,GI50,[15],3.92 µM
same,CC50,[15],58.2 µM
same,TGI,[16],7.75 µM
same,GI50,[16],2.4 µM
same,CC50,[16],36.4 µM
same,GI50,[17]; [27],3.28 µM
same,GI50,[17]; [28],0.42 to 8.99 µM
same,GI50,[18],0.582 µM
same,CC50,[18],13.3 µM
same,TGI,[18],2.85 µM
same,GI50,[19]; Homo sapiens,1.48 µM
same,TGI,[19],5.00 µM
same,GI50,[20],4.43 µM
same,CC50,[20],> 100 µM
same,TGI,[20],37.80 µM
same,TGI,[21],31.90 µM
same,GI50,[21],4.36 µM
same,CC50,[21],> 100 µM
same,TGI,[22],13.30 µM
same,GI50,[22],2.6 µM
same,CC50,[22],> 100 µM
same,GI50,[23],3.51 µM
same,CC50,[23],52.2 µM
same,TGI,[23],14.90 µM
same,TGI,[24],9.70 µM
same,GI50,[24],2.84 µM
same,CC50,[24],50.5 µM
same,GI50,[25],12.6 µM
same,CC50,[25],> 100 µM
same,TGI,[25],>100 µM
same,GI50,[26],4.3 µM
same,GI50 Selectivity Ratio (MID a/MID b),[26],0.76
"O=C(NN=Cc1ccc(Cl)cc1)c1ccc2[nH]c(-c3ccc(Cl)cc3)nc2c1 [Compound 4e, N′-(4-Chlorobenzylidene)-2-(4-chlorophenyl)-1H-benzimidazole-5-carbohydrazide]",GI50,[1],1.79 µM
same,CC50,[1],11 µM
same,TGI,[1],4.31 µM
same,GI50,[2],1.65 µM
same,CC50,[2],8.96 µM
same,TGI,[2],3.84 µM
same,LC50,[3]; Homo sapiens,7.43 µM
same,GI50,[3]; Homo sapiens,1.83 µM
same,TGI,[3],3.69 µM
same,GI50,[4],1.58 µM
same,CC50,[4],5.86 µM
same,TGI,[4],3.04 µM
same,GI50,[5],2.15 µM
same,CC50,[5],19.8 µM
same,TGI,[5],5.26 µM
same,GI50 Selectivity Ratio (MID a/MID b),[6],0.79
same,GI50,[6],2.27 µM
same,TGI,[7],3.25 µM
same,GI50,[7]; Homo sapiens,1.55 µM
same,CC50,"[7]; Homo sapiens, read-out: LC50 (the source's name)",8.82 µM
same,GI50,[8],1.77 µM
same,GI50 Selectivity Ratio (MID a/MID b),[8],1.01
same,GI50,[9],1.84 µM
same,CC50,[9],6.28 µM
same,TGI,[9],3.39 µM
same,GI50,[10],1.81 µM
same,GI50 Selectivity Ratio (MID a/MID b),[10],0.99
same,GI50,[11],1.85 µM
same,CC50,[11],7.67 µM
same,TGI,[11],3.77 µM
same,IC50,[12],0.09 ± 0.01 µM
same,GI50,[13],1.77 µM
same,CC50,[13],6.86 µM
same,TGI,[13],3.48 µM
same,GI50,[14],2.1 µM
same,CC50,[14],8.35 µM
same,TGI,[14],4.18 µM
same,TGI,[15],3.48 µM
same,GI50,[15],1.79 µM
same,CC50,[15],6.76 µM
same,TGI,[16],4.94 µM
same,GI50,[16],1.74 µM
same,CC50,[16],19.6 µM
same,GI50,[17]; [27],1.79 µM
same,LC50,"[17]; five-dose assay, range over cell lines",5.73 to 77.9 µM
same,GI50,[17]; [28],0.97 to 4.93 µM
same,GI50,[18],1.15 µM
same,CC50,[18],5.73 µM
same,TGI,[18],2.56 µM
same,LC50,[19]; Homo sapiens,6.41 µM
same,GI50,[19]; Homo sapiens,1.55 µM
same,TGI,[19],3.15 µM
same,GI50,[20],1.85 µM
same,CC50,[20],8.52 µM
same,TGI,[20],3.97 µM
same,TGI,[21],3.17 µM
same,GI50,[21],1.73 µM
same,CC50,[21],5.78 µM
same,TGI,[22],3.03 µM
same,GI50,[22],1.42 µM
same,CC50,[22],6.46 µM
same,GI50,[23],1.78 µM
same,CC50,[23],6.49 µM
same,TGI,[23],3.40 µM
same,TGI,[24],2.13 µM
same,GI50,[24],4.93 µM
same,CC50,[24],75.8 µM
same,GI50,[25],1.83 µM
same,CC50,[25],12.7 µM
same,TGI,[25],4.43 µM
same,GI50,[26],1.77 µM
same,GI50 Selectivity Ratio (MID a/MID b),[26],1.01
